Reference: patent US7585839B2, “Medical uses of intercellular communication facilitating compounds” (Zealand Pharma A/S, priority 2001, dated 2009)
Where a SMILES comes first, the peptide text is derived from it. [ ]: non-standard residue; d: D form. The star is where a group is joined. Dnp = O=[N+]([O-])c1ccc(*)c([N+](=O)[O-])c1; X1 = [N-]=[N+]=Nc1cc(O)c(C(=O)*)cc1I; Hyp = O=C(O)[C@@H]1C[C@@H](O)CN1; dHyp = O=C(O)[C@H]1C[C@H](O)CN1; Pip = O=C(O)[C@@H]1CCCCN1; Thz = O=C(O)[C@@H]1CSCN1; Acm = CC(=O)NC*; Sar = CNCC(=O)O

System: calcium-induced arrythmias
Experiment: Calcium-induced arrhythmia model in mice (CaCl2-induced 2nd degree AV-block)
Assay type: in vivo
Set-up: CaCl2 mice Score: scale not given here
Details: for CaCl2 mice Score / CaCl2 mice In vivo, %: calcium chloride induced arrythmia model; for In vivo activity: maximal effect, increase in time until 2nd degree AV-block relative to vehicle treated mice, i.v.
Description: The antiarrhythmic effects of compounds of this invention were tested in an in vivo model of calcium-induced arrythmias according to the model of Lynch et al.^[37]. […]. Commercial solutions of hypnorm and midazolam were diluted 1:1 in distilled water and one part diluted Hypnorm® is mixed with one part diluted midazolam.
The anaesthesia was induced by s.c. administration in a dose of 0.05-0.075 μl/10 gram mouse. An i.v. cannula was inserted into the tail vein. The lead II ECG signal was recorded continuously by positioning of a stainless steel ECG electrodes on the right forelimb and on the left hind limb. The ground electrode was placed on the right hind limb. The signal was amplified (×5.000-10.000) and filtered (0.1-150 Hz) via a Hugo Sachs Electronic model 689 ECG module. The analogue signal was digitised via a 12 bit data acquisition board (Data Translation model DT321) and sampled at 1000 Hz using the Notocord HEM 3.1 software for Windows NT. After a 10-min equilibration period, the test sample of drug was injected into the tail vein. Mice pre-treated with vehicle were tested as a measure of the control level in untreated animals. The injection volume was 100 μl in all experiments. Infusion of CaCl2 (30 mg/ml, 0.1 ml/min≈100 mg/kg/min (calciumchlorid-2-hydrat, Riedel-de Haën, Germany)) was started 3 min after i.v. administration of drug or vehicle.
The time lag to onset of 2nd degree AV-block was determined as the time from the start of CaCl2 infusion until the first arrhythmic event occured. An event of 2nd degree AV-block was defined as intermittent failure of the AV conduction characterised by a P-wave without the concomitant QRS complex.
Responses were expressed relative to the time until 2nd degree AV-block occurred in vehicle treated mice.

Compound | CaCl2 mice Score | In vivo activity | CaCl2 mice In vivo, %
C[C@H](NC(=O)CN)C(=O)N(C)CC(=O)N1C[C@H](O)C[C@H]1C(=O)N1CCC[C@H]1C(=O)N[C@@H](Cc1ccc(O)cc1)C(N)=O [Compound 30, H-Gly-Ala-Sar-Hyp-Pro-Tyr-NH2] (H-GA[Sar][Hyp]PY-NH2) | 2 | ++ (++ refers to 30-50% increase in time until arrhythmia) | 
NCC(=O)N[C@H](CC(N)=O)C(=O)N[C@@H](Cc1ccc(O)cc1)C(N)=O [H-G-DN-Y-NH2] (H-Gly-[dN]-Tyr-NH2) |  |  | 37 +/− 10%
CF3C(O)-AAP10-NH2 | 3 |  | 48 +/− 13%
CNCC(=O)N[C@@H](C)C(=O)N(C)CC(=O)N1C[C@H](O)C[C@H]1C(=O)N1CCC[C@H]1C(=O)N[C@@H](Cc1ccc(O)cc1)C(N)=O [Compound 29, H-Sar-Ala-Sar-Hyp-Pro-Tyr-NH2] (H-[Sar]A[Sar][Hyp]PY-NH2) | 1 | + (+ refers to 15-29% increase in time until arrhythmia) | 
C[C@H](NC(=O)CN)C(=O)NCC(=O)N1C[C@@H](O)C[C@@H]1C(=O)N1CCC[C@H]1C(=O)N[C@@H](Cc1ccc(O)cc1)C(N)=O [Compound 5, H-Gly-Ala-Gly-D-Hyp-Pro-Tyr-NH2] (H-GAG[dHyp]PY-NH2) | 1 | ++ (++ refers to 30-50% increase in time until arrhythmia) | 
3(4-hydroxyphenyl)propionyl-Pro-Hyp-Gly-Ala-Gly-Lys-Lys-Lys-Lys-Lys-Lys-OH [Compound 49] | 3 |  | 80 +/− 17%
CC(=O)N[C@@H](Cc1ccc(O)cc1)C(=O)N[C@@H](CC(=O)O)C(=O)N[C@@H](CC(N)=O)C(=O)NCC(N)=O [Ac-Y-D-N-G-NH2] (Ac-YDNG-NH2) |  |  | 17 +/− 8%
H-GP[Hyp]GAG-OH [AAP, reference compound] | 2 |  | 35 +/− 7%
3-(4-hydroxyphenyl)propionyl-Pro-Hyp-Gly-Ala-Gly-OH [HP5, reference compound] | 2 | ++ (++ refers to 30-50% increase in time until arrhythmia) | 50 +/− 11%
NCC(=O)N[C@@H](CCCCNc1ccc([N+](=O)[O-])cc1[N+](=O)[O-])C(=O)N[C@@H](Cc1ccc(O)cc1)C(N)=O [H-GK(DNP)Y-NH2] (H-Gly-Lys(Dnp)-Tyr-NH2) |  |  | 25 +/− 7%
C[C@H](NC(=O)CN)C(=O)NCC(=O)N1C[C@H](O)C[C@H]1C(=O)N1CCC[C@H]1C(=O)N[C@@H](Cc1ccc(O)cc1)C(=O)N[C@@H](CC(N)=O)C(N)=O [H-AAP-10-Asn-NH2] (H-GAG[Hyp]PYN-NH2) |  |  | 31 +/− 6%
C[C@H](NC(=O)CN)C(=O)NCC(=O)N1C[C@@H](O)C[C@@H]1C(=O)N[C@@H](C)C(=O)N[C@@H](Cc1ccc(O)cc1)C(N)=O [Compound 9, H-Gly-Ala-Gly-D-Hyp-Ala-Tyr-NH2] (H-GAG[dHyp]AY-NH2) | 1 | + (+ refers to 15-29% increase in time until arrhythmia) | 
CC(=O)N[C@@H](Cc1ccc(O)cc1)C(=O)N[C@H](CC(N)=O)C(=O)NCC(=O)O [Ac-Y-DN-G-OH] (Ac-Tyr-[dN]-Gly-OH) |  |  | 44 +/− 10%
CC(=O)NCC(=O)N[C@@H](CC(=O)O)C(=O)N[C@@H](CC(N)=O)C(=O)N[C@@H](Cc1ccc(O)cc1)C(N)=O [Ac-G-D-N-Y-NH2] (Ac-GDNY-NH2) |  |  | 19 +/− 8%
C[C@H](NC(=O)CN)C(=O)NCC(=O)N1CCCC[C@H]1C(=O)N1CCC[C@H]1C(=O)N[C@@H](Cc1ccc(O)cc1)C(N)=O [Compound 14, H-Gly-Ala-Gly-PC-Pro-Tyr-NH2] (H-GAG[Pip]PY-NH2) | 1 | + (+ refers to 15-29% increase in time until arrhythmia) | 21 +/− 11%
H-Gly-Ala-Gly-Asn-Tyr-NH2 [Compound 39] | 2 | +++ (+++ refers to >60% increase in time until arrhythmia) | 53 +/− 15%
NCC(=O)NCC(=O)N[C@@H](Cc1ccc(O)cc1)C(N)=O [H-GGY-NH2] (H-Gly-Gly-Tyr-NH2) |  |  | 39 +/− 9%
H-GAGGPY-NH2 [H-GAGGPY-NH2] |  |  | 32 +/− 9%

Compound | CaCl2 mice Score | In vivo activity | CaCl2 mice In vivo, %
[Pro^4]AAP10-NH2 [reference compound] | 3 |  | 62 +/− 9%
Ac-Gly-Asn-Tyr-NH2 [Compound 40] | 2 | ++ (++ refers to 30-50% increase in time until arrhythmia) | 46 +/− 9%
NC(=O)C[C@@H](NC(=O)[C@@H](N)Cc1ccc(O)cc1)C(=O)NCC(=O)O [H-Y-DN-G-OH] (H-Tyr-[dN]-Gly-OH) |  |  | 39 +/− 9%
C[C@H](NC(=O)CN)C(=O)NCC(=O)N1CCC[C@@H]1C(=O)N[C@@H](C)C(=O)N[C@@H](Cc1ccc(O)cc1)C(N)=O [Compound 7, H-Gly-Ala-Gly-D-Pro-Ala-Tyr-NH2] (H-GAG[dP]AY-NH2) | 1 |  | 
C[C@H](NC(=O)CN)C(=O)NCC(=O)N1CSC[C@H]1C(=O)N1CCC[C@H]1C(=O)N[C@@H](Cc1ccc(O)cc1)C(N)=O [Compound 12, H-Gly-Ala-Gly-T4C-Pro-Tyr-NH2] (H-GAG[Thz]PY-NH2) | 2 | ++ (++ refers to 30-50% increase in time until arrhythmia) | 32 +/− 6%
NC(=O)CNC(=O)[C@H](CC(N)=O)NC(=O)[C@@H](N)Cc1ccc(O)cc1 [H-YNG-NH2] (H-Tyr-Asn-Gly-NH2) |  |  | 34 +/− 9%
C[C@H](NC(=O)CN)C(=O)N[C@@H](CC(N)=O)C(=O)N[C@@H](Cc1ccc(O)cc1)C(N)=O [H-GANY-NH2] (H-GANY-NH2) |  |  | 21 +/− 7%
C[C@H](NC(=O)CNC(=O)[C@H](CC(N)=O)NC(=O)[C@H](Cc1ccc(O)cc1)NC(=O)[C@@H]1CCCN1C(=O)[C@@H]1C[C@@H](O)CN1)C(=O)NCC(N)=O [Compound 28, H-Hyp-Pro-Tyr-Asn-Gly-Ala-Gly-NH2] (H-[Hyp]PYNGAG-NH2) | 2 | (+) ((+) refers to <15% in time until arrhythmia) | 
CC(=O)NCSC[C@H](NC(=O)[C@H](Cc1ccc(O)cc1)NC(=O)[C@@H]1CCCN1C(=O)[C@@H]1C[C@@H](O)CN1C(=O)CNC(=O)[C@H](C)NC(=O)CNC(=O)[C@@H](N)CSCNC(C)=O)C(N)=O [Compound 16, H-Cys(Acm)-Gly-Ala-Gly-Hyp-Pro-Tyr-Cys(Acm)-NH2] (H-C(Acm)GAG[Hyp]PYC(Acm)-NH2) | 1 | + (+ refers to 15-29% increase in time until arrhythmia) | 23 +/− 10%
CC(=O)N[C@@H](Cc1ccc(O)cc1)C(=O)N1CCC[C@H]1C(=O)N1C[C@H](O)C[C@H]1C(=O)NCC(=O)N[C@@H](C)C(=O)NCC(=O)O [Compound 1, Ac-Tyr-Pro-4Hyp-Gly-Ala-Gly-OH] (Ac-YP[Hyp]GAG-OH) |  | + (+ refers to 15-29% increase in time until arrhythmia) | 50 +/− 20%
C[C@H](NC(=O)CN)C(=O)NCC(=O)N1C[C@@H](O)C[C@@H]1C(=O)N1CCC[C@@H]1C(=O)N[C@@H](Cc1ccc(O)cc1)C(N)=O [Compound 10, H-Gly-Ala-Gly-D-Hyp-D-Pro-Tyr-NH2] (H-GAG[dHyp][dP]Y-NH2) | 2 | +++ (+++ refers to >60% increase in time until arrhythmia) | 
H-GAG[Hyp]PYKKKKKK-OH [Compound 48] | 3 |  | 64 +/− 10%
Cyclo(Tyr-Pro-4Hyp-Gly-Ala-Gly-Asn) [Compound 3] | 2 | +++ (+++ refers to >60% increase in time until arrhythmia) | 59 +/− 9%
3(4-hydroxyphenyl)propionyl-Pro-Hyp-Gly-Ala-Gly-Lys-Lys-Lys-Lys-Lys-Lys-NH2 [Compound 51] | 1 |  | 21 +/− 17%
H-DY-DN-G-NH2 | 1 |  | 25 +/− 9%
C[C@H](NC(=O)CN)C(=O)NCC(=O)N1C[C@H](O)C[C@H]1C(=O)N1CCC[C@H]1C(=O)N[C@@H](Cc1ccc(O)cc1)C(=O)N[C@@H](CCCCN)C(=O)N[C@@H](CCCCN)C(=O)N[C@@H](CCCCN)C(=O)N[C@@H](CCCCN)C(=O)N[C@@H](CCCCN)C(=O)N[C@@H](CCCCN)C(N)=O [Compound 50] (H-GAG[Hyp]PYKKKKKK-NH2) | 2 |  | 33 +/− 17%
H-Gly-Asn-Tyr-NH2 [Compound 41] | 2 | ++ (++ refers to 30-50% increase in time until arrhythmia) | 58 +/− 10%
C[C@H](NC(=O)CNC(=O)[C@@H]1C[C@@H](O)CN1C(=O)[C@@H]1CCCN1C(=O)c1cc(I)c(N=[N+]=[N-])cc1O)C(=O)NCC(N)=O [Compound 32, ASAL(mono-iodo)-Pro-Hyp-Gly-Ala-Gly-NH2] (X1-P[Hyp]GAG-NH2) |  | +++ (+++ refers to >60% increase in time until arrhythmia) | 
